Experiment [1] has as its target T1, WRN helicase (aa N517-P1238) (Homo sapiens, UniProt Q14191).
T1 construct: The core helicase motif of the WRN protein (aa N517-P1238) was produced for this assay; His (N); ZZ (N); 3C protease cleavage site (N); made in house; host or cells: Sf21 insect cells (baculovirus; virus and BIICs made in SF9)
In words: WRN ATPase assay (DNA dependent ATP hydrolysis, ADP-Glo). The settings on record: 3 hours pre-incubation, 300 micromolar ATP, FLAP26 DNA; geometric mean of at least 2. The format is biochemical. Summed up: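 DNA-dependent ATP hydrolysis detected as ADP by ADP-Glo luminescence, using 300 μM ATP, 0.2 nM FLAP26 substrate and 10 nM WRN aa N517-P1238 (Tris pH 7.5 buffer, 2 mM MgCl2, 50 mM NaCl). IC50s fitted from normalized duplicate half-log dilutions; reported as geometric means of at least 2 replicates.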
A general note: ADP-Glo first removes unused ATP, then detects ADP through luciferase.

The subject of experiment [2] is SW48 cells. In words: Proliferation assay SW48 (CellTiterGlo). Type of experiment: cell-based. The settings on record: Homo sapiens, SW48, 96 h, SW48 colon carcinoma cells, 96 hours, CellTiterGlo; geometric mean of at least 2; read-out: Proliferation Assay SW48 GI50. Summed up:
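Read-out is CellTiterGlo luminescence after 96 hours of compound exposure, with % growth calculated against day-0 and vehicle-treated ATP levels. SW48 seeded at 2,000 cells/well, dosed next day with eight 3-fold serial dilutions, 0.1% DMSO. GI50 reported as geometric mean, at least 2 replicates.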
(ATP-based viability assays read luminescence as a measure of living cells.)

Experiment [3] has as its system DLD1-WRN-KO cells. In words: Proliferation assay DLD1-WRN-KO (CellTiterGlo, off-target effects). The format is cell-based. The note with it: 96 hours, geometric mean of at least 2. Summed up: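 DLD1 cells with CRISPR knockout of WRN were exposed overnight-seeded to eight 3-fold compound dilutions (0.1% DMSO) for 96 h at 37 °C. Viability was read as ATP by CellTiterGlo luminescence against a day-0 plate, giving GI50 and residual viability at top concentration.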

By IC50 is commonly meant the concentration that inhibits the measured activity by half. A high value points to lower potency.

Some results are limits rather than exact numbers.

T1 sequence (Q14191 517-1238): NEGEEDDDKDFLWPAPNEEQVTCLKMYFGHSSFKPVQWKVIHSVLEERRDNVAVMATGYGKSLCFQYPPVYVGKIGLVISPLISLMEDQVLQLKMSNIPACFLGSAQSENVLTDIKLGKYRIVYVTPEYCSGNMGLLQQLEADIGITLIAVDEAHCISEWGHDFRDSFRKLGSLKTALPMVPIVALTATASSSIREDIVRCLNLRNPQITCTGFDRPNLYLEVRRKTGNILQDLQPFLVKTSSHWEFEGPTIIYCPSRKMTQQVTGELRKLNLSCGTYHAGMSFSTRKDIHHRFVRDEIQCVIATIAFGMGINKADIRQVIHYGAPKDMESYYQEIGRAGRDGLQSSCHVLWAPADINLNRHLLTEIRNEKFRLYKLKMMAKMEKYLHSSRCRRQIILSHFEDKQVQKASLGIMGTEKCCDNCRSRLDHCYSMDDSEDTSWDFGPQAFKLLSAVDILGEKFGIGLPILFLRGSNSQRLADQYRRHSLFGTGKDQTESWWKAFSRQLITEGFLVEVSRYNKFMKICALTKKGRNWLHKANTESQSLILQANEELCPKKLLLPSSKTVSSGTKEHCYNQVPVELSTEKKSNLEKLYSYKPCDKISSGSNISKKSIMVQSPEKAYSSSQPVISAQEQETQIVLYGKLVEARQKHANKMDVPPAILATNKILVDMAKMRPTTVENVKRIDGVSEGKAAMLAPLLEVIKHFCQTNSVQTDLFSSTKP

The compound `CC(=O)N1CCN(c2c(C)n(CC(=O)Nc3ccc(C(F)(F)F)cc3)c3nc(C4=CCOCC4)nn3c2=O)C[C@H]1C` [Example 63, (R)-2-(6-(4-acetyl-3-methylpiperazin-1-yl)-2-(3,6-dihydro-2H-pyran-4-yl)-5-methyl-7-oxo-[1,2,4]triazolo[1,5-a]pyrimidin-4(7H)-yl)-N-(4-(trifluoromethyl)phenyl)acetamide] yielded a concentration for half-maximal inhibition (IC50) in experiment [1] of 500 nM. The figures for the GI50 in experiment [2] and in experiment [3] were 4000 nM and > 10000 nM, respectively.
Taken in the same sequence, the figures for `CC(=O)N1CCN(c2c(C)n(CC(=O)Nc3ccc(C(F)(F)F)cc3C)c3nc(C4=CCOCC4)nn3c2=O)CC1` [Example 64, 2-(6-(4-acetylpiperazin-1-yl)-2-(3,6-dihydro-2H-pyran-4-yl)-5-methyl-7-oxo-[1,2,4]triazolo[1,5-a]pyrimidin-4(7H)-yl)-N-(2-methyl-4-(trifluoromethyl)phenyl)acetamide] were 900 nM, 4000 nM and > 10000 nM.
For `Cc1c(N2CCN(C(=O)OCc3ccccc3)CC2)c(=O)n2nc(C3=CCOCC3)nc2n1CC(=O)Nc1ccc(C(F)(F)F)cc1` [Example 65, benzyl 4-(2-(3,6-dihydro-2H-pyran-4-yl)-5-methyl-7-oxo-4-(2-oxo-2-((4-(trifluoromethyl)phenyl)amino)ethyl)-4,7-dihydro-[1,2,4]triazolo[1,5-a]pyrimidin-6-yl)piperazine-1-carboxylate] the same measures were 8000 nM, 4000 nM and 4000 nM.
The compound `CCc1c(N2CCN(C(=O)c3nsnc3O)CC2)c(=O)n2nc(C3=CCOCC3)nc2n1CC(=O)Nc1ccc(C(F)(F)F)cc1Cl` [Example 66, N-(2-chloro-4-(trifluoromethyl)phenyl)-2-(2-(3,6-dihydro-2H-pyran-4-yl)-5-ethyl-6-(4-(4-hydroxy-1,2,5-thiadiazole-3-carbonyl)piperazin-1-yl)-7-oxo-[1,2,4]triazolo[1,5-a]pyrimidin-4(7H)-yl)acetamide] had an IC50 in experiment [1] of 30 nM. Moreover, the results for the GI50 in experiment [2] and in experiment [3] were 300 nM and > 10000 nM, respectively.
For `CCc1c(N2CCN(C(=O)c3ncn(C)c3O)CC2)c(=O)n2nc(C3=CCOCC3)nc2n1CC(=O)Nc1ccc(C(F)(F)F)cc1Cl` [Example 67, N-(2-chloro-4-(trifluoromethyl)phenyl)-2-(2-(3,6-dihydro-2H-pyran-4-yl)-5-ethyl-6-(4-(5-hydroxy-1-methyl-1H-imidazole-4-carbonyl)piperazin-1-yl)-7-oxo-[1,2,4]triazolo[1,5-a]pyrimidin-4(7H)-yl)acetamide] the same measures were 300 nM, 3000 nM and > 10000 nM.
Taken in the same sequence, the figures for `CCc1c(N2CCN(C(=O)c3c(F)ccc(F)c3O)CC2)c(=O)n2nc(C3=CCOCC3)nc2n1CC(=O)Nc1ccc(C(F)(F)F)cc1C` [Example 68, 2-(6-(4-(3,6-difluoro-2-hydroxybenzoyl)piperazin-1-yl)-2-(3,6-dihydro-2H-pyran-4-yl)-5-ethyl-7-oxo-[1,2,4]triazolo[1,5-a]pyrimidin-4(7H)-yl)-N-(2-methyl-4-(trifluoromethyl)phenyl)acetamide] were 20 nM, 100 nM and > 10000 nM.
Taken in the same sequence, the figures for `CC(=O)N1CCN(c2c(C)n(CC(=O)Nc3ccc(C(F)(F)F)cc3)c3nc(C4=CCOCC4)nn3c2=O)CC1` [Example 69, 2-(6-(4-acetylpiperazin-1-yl)-2-(3,6-dihydro-2H-pyran-4-yl)-5-methyl-7-oxo-[1,2,4]triazolo[1,5-a]pyrimidin-4(7H)-yl)-N-(4-(trifluoromethyl)phenyl)acetamide] were 500 nM, 4000 nM and > 10000 nM.
Consider `CC(=O)N(C)Cc1ccc(-c2nc3n(CC(=O)Nc4ccc(C(F)(F)F)cc4)c(C)c(N4CCN(C(C)=O)CC4)c(=O)n3n2)cc1` [Example 70, 2-(6-(4-acetylpiperazin-1-yl)-5-methyl-2-(4-((N-methylacetamido)methyl)phenyl)-7-oxo-[1,2,4]triazolo[1,5-a]pyrimidin-4(7H)-yl)-N-(4-(trifluoromethyl)phenyl)acetamide], for which the half-inhibitory concentration (IC50) in experiment [1] was found to be 70 nM. In addition, the values for the GI50 in experiment [2] and in experiment [3] were 900 nM and > 10000 nM, respectively.
`CC(=O)N1CC=C(c2nc3n(CC(=O)Nc4ccc(S(F)(F)(F)(F)F)cc4)c(C)c(N4CCN(C(C)=O)CC4)c(=O)n3n2)CC1` [Example 71, 2-(2-(1-acetyl-1,2,3,6-tetrahydropyridin-4-yl)-6-(4-acetylpiperazin-1-yl)-5-methyl-7-oxo-[1,2,4]triazolo[1,5-a]pyrimidin-4(7H)-yl)-N-(4-(pentafluoro-l6-sulfaneyl)phenyl)acetamide] showed an IC50 in experiment [1] of 90 nM. Moreover, the GI50 in experiment [2] was 5000 nM; in experiment [3] it was > 10000 nM.
Taken in the same sequence, the figures for `CCc1ccc(NC(=O)Cn2c(C)c(N3CCN(C(C)=O)CC3)c(=O)n3nc(C4=CCOCC4)nc23)cc1C(F)(F)F` [Example 72, 2-(6-(4-acetylpiperazin-1-yl)-2-(3,6-dihydro-2H-pyran-4-yl)-5-methyl-7-oxo-[1,2,4]triazolo[1,5-a]pyrimidin-4(7H)-yl)-N-(4-ethyl-3-(trifluoromethyl)phenyl)acetamide] were 100 nM, 2000 nM and > 10000 nM.
For `CC(=O)N1CCN(c2c(C)n(CC(=O)Nc3ccc(S(F)(F)(F)(F)F)cc3Cl)c3nc(C4=CCOCC4)nn3c2=O)CC1` [Example 73, 2-(6-(4-acetylpiperazin-1-yl)-2-(3,6-dihydro-2H-pyran-4-yl)-5-methyl-7-oxo-[1,2,4]triazolo[1,5-a]pyrimidin-4(7H)-yl)-N-(2-chloro-4-(pentafluoro-l6-sulfaneyl)phenyl)acetamide] the same measures were 100 nM, 2000 nM and > 10000 nM.
Consider `COC(=O)N1CC=C(c2nc3n(CC(=O)Nc4ccc(Cl)c(C(F)(F)F)c4)c(C)c(N4CCN(C(C)=O)CC4)c(=O)n3n2)CC1` [Example 77, methyl 4-(6-(4-acetylpiperazin-1-yl)-4-(2-((4-chloro-3-(trifluoromethyl)phenyl)amino)-2-oxoethyl)-5-methyl-7-oxo-4,7-dihydro-[1,2,4]triazolo[1,5-a]pyrimidin-2-yl)-5,6-dihydropyridine-1(2H)-carboxylate], for which the midpoint of inhibition in experiment [1], the IC50, lay at 200 nM. In addition, the figures for the GI50 in experiment [2] and in experiment [3] were 4000 nM and > 10000 nM, respectively.
For `CC(=O)N1CCN(c2c(C)n(CC(=O)Nc3ccc(S(F)(F)(F)(F)F)cc3)c3nc(C4=CCOCC4)nn3c2=O)CC1` [Example 78, 2-(6-(4-acetylpiperazin-1-yl)-2-(3,6-dihydro-2H-pyran-4-yl)-5-methyl-7-oxo-[1,2,4]triazolo[1,5-a]pyrimidin-4(7H)-yl)-N-(4-(pentafluoro-l6-sulfaneyl)phenyl)acetamide] the same measures were 200 nM, 3000 nM and > 10000 nM.
The compound `CC(=O)N1CCN(c2c(C)n(CC(=O)Nc3ccc(Cl)cc3)c3nc(C4=CCCCO4)nn3c2=O)CC1` [Example 79, 2-(6-(4-acetylpiperazin-1-yl)-2-(3,4-dihydro-2H-pyran-6-yl)-5-methyl-7-oxo-[1,2,4]triazolo[1,5-a]pyrimidin-4(7H)-yl)-N-(4-chlorophenyl)acetamide] yielded an IC50 in experiment [1] of 200 nM. The GI50 in experiment [2] is 5000 nM; in experiment [3] it was > 10000 nM.
For `CC(=O)N1CCN(c2c(C)n(CC(=O)Nc3cc(C(F)(F)F)c(Cl)cc3C)c3nc(C4=CCOCC4)nn3c2=O)CC1` [Example 80, 2-(6-(4-acetylpiperazin-1-yl)-2-(3,6-dihydro-2H-pyran-4-yl)-5-methyl-7-oxo-[1,2,4]triazolo[1,5-a]pyrimidin-4(7H)-yl)-N-(4-chloro-2-methyl-5-(trifluoromethyl)phenyl)acetamide] the same measures were 300 nM, 800 nM and > 10000 nM.
Taken in the same sequence, the figures for `COC(=O)N1CCN(c2nc3n(CC(=O)Nc4ccc(S(F)(F)(F)(F)F)cc4)c(C)c(N4CCN(C(C)=O)CC4)c(=O)n3n2)CC1` [Example 81, methyl 4-(6-(4-acetylpiperazin-1-yl)-5-methyl-7-oxo-4-(2-oxo-2-((4-(pentafluoro-l6-sulfaneyl)phenyl)amino)ethyl)-4,7-dihydro-[1,2,4]triazolo[1,5-a]pyrimidin-2-yl)piperazine-1-carboxylate] were 300 nM, 4000 nM and > 10000 nM.
Taken in the same sequence, the figures for `[2H]C([2H])(C(=O)Nc1ccc(C(F)(F)F)cc1)n1c(CC)c(N2CCN(C(C)=O)CC2)c(=O)n2nc(C3=CCOCC3)nc12` [Example 82, 2-(6-(4-acetylpiperazin-1-yl)-2-(3,6-dihydro-2H-pyran-4-yl)-5-ethyl-7-oxo-[1,2,4]triazolo[1,5-a]pyrimidin-4(7H)-yl)-N-(4-(trifluoromethyl)phenyl)acetamide-2,2-d2] were 300 nM, 2000 nM and > 10000 nM.
